Results reported in patent publication US20200024278A1, “COMPOSITION COMPRISING ANTIBIOTIC COMPOUND AND AN HETEROCYCLIC COMPOUND AND THEIR USE IN PREVENTING OR TREATING BACTERIAL INFECTIONS” (MUTABILIS, priority 2016, published 2020).

Columns and labels:
Experiment in all cases: MIC, broth microdilution (CLSI), substance alone or ATB combined with compound at 4 or 8 μg/mL
ECO 190317 = type: cell-based, E. coli; settings: ECO 190317; for MIC ATB combined with Example: Example @4 μg/ml
Outline: (§1)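 Per CLSI-M7-A7, MICs are determined in cation-adjusted Mueller-Hinton broth with a final inoculum of 5·10^5 CFU/mL. Plates incubate 16-20 h at 35° C in air and are read by eye. Fosfomycin assays carry 25 μg/ml glucose-6-phosphate.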

ECO UFR39 = type: cell-based, E. coli; settings: ECO UFR39; for MIC ATB combined with Example: Example @4 μg/ml; for MIC ATB combined with Example compound: compound @4 μg/ml
Outline: as §1

KPN 6299 = type: cell-based, K. pneumoniae; settings: for MIC ATB combined with Example: Example @4 μg/ml
Outline: as §1

KPN BAA-1898 = type: cell-based, K. pneumoniae; settings: KPN BAA-1898; for MIC ATB combined with Example: Example @4 μg/ml
Outline: as §1

KPN UFR42 = type: cell-based, K. pneumoniae; settings: KPN UFR42; for MIC ATB combined with Example: Example @4 μg/ml; for MIC ATB combined with Example compound: compound @4 μg/ml
Outline: as §1

ECL P99 = type: cell-based, E. cloacae; settings: ECL P99; for MIC ATB combined with Example: Example @4 μg/ml
Outline: as §1

PAE 105250 = type: cell-based, P. aeruginosa; settings: PAE 105250; for MIC ATB combined with Example: Example @4 μg/ml; for MIC ATB combined with Example compound: compound @4 μg/ml
Outline: as §1

PAE UFR48 = type: cell-based, P. aeruginosa; settings: PAE UFR48; for MIC ATB combined with Example: Example @4 μg/ml; for MIC ATB combined with Example compound: compound @4 μg/ml
Outline: as §1

PAE UFR90 = type: cell-based, P. aeruginosa; settings: PAE UFR90; for MIC ATB combined with Example: Example @4 μg/ml; for MIC ATB combined with Example compound: compound @4 μg/ml
Outline: as §1

SAU 29213 = type: cell-based, S. aureus; settings: for MIC ATB combined with Example / MIC ATB combined with Example compound: SAU 29213; for MIC ATB combined with Example: Example @4 μg/ml; for MIC ATB combined with Example compound: compound @4 μg/ml
Outline: as §1

SPN 49619 = type: cell-based, S. pneumoniae; settings: SPN 49619; for MIC ATB combined with Example: Example @4 μg/ml; for MIC ATB combined with Example compound: compound @4 μg/ml
Outline: as §1

ABA 19606 = type: cell-based, A. baumannii; settings: Acinetobacter baumannii, substance alone, read-out: MIC
Outline: as §1

ABA UFR160 = type: cell-based, A. baumannii; settings: Acinetobacter baumannii, substance alone, read-out: MIC
Outline: as §1

[1] = Escherichia coli, substance alone, read-out: MIC
[2] = Pseudomonas aeruginosa, substance alone, read-out: MIC

MIC ATB combined with Example (ECO 190317; ATB ATM): <0.031 µg/mL
MIC ATB combined with Example (ECO 190317; ATB FEP): <0.031 µg/mL
MIC ATB combined with Example (ECO 190317; ATB FOS): <0.125 µg/mL
MIC ATB combined with Example (ECO 190317; ATB MEM): <0.031 µg/mL
MIC ATB combined with Example (ECO 190317; ATB PIP): <0.031 µg/mL
MIC (ECO 190317; [1]): 1 µg/mL
MIC ATB combined with Example compound (ECO 190317; MIC of CIP, compound @4 μg/ml): <0.031 µg/mL
MIC ATB combined with Example (ECO UFR39; ATB ATM): <0.031 µg/mL
MIC ATB combined with Example (ECO UFR39; ATB FEP): <0.031 µg/mL
MIC ATB combined with Example (ECO UFR39; ATB FOS): <=0.125 μg/mL
MIC ATB combined with Example (ECO UFR39; ATB MEM): <0.031 µg/mL
MIC ATB combined with Example (ECO UFR39; ATB PIP): <0.031 µg/mL
MIC (ECO UFR39; [1]): 2 µg/mL
MIC ATB combined with Example compound (ECO UFR39; MIC of CIP): <=0.031 μg/mL
MIC ATB combined with Example compound (ECO UFR39; MIC of CPO): <=0.031 μg/mL
MIC ATB combined with Example (KPN 6299; ATB ATM): <0.031 µg/mL
MIC ATB combined with Example (KPN 6299; ATB FEP): <=0.25 μg/mL
MIC ATB combined with Example (KPN 6299; ATB FOS): <=0.125 μg/mL
MIC ATB combined with Example (KPN 6299; ATB MEM): <0.031 µg/mL
MIC ATB combined with Example (KPN 6299; ATB PIP): <0.031 µg/mL
MIC ATB combined with Example compound (KPN 6299; MIC of CIP, compound @4 μg/ml): 0.063 µg/mL
MIC ATB combined with Example (KPN BAA-1898; ATB ATM): <0.031 µg/mL
MIC ATB combined with Example (KPN BAA-1898; ATB FEP): <0.031 µg/mL
MIC ATB combined with Example (KPN BAA-1898; ATB FOS): 0.25 µg/mL
MIC ATB combined with Example (KPN BAA-1898; ATB MEM): <0.031 µg/mL
MIC ATB combined with Example (KPN BAA-1898; ATB PIP): <0.031 µg/mL
MIC (KPN BAA-1898; Klebsiella pneumoniae, BAA1898, substance alone, read-out: MIC): 4 µg/mL
MIC ATB combined with Example compound (KPN BAA-1898; MIC of CIP, compound @4 μg/ml): <=0.031 μg/mL
MIC ATB combined with Example (KPN UFR42; ATB ATM): <0.031 µg/mL
MIC ATB combined with Example (KPN UFR42; ATB FEP): <0.031 µg/mL
MIC ATB combined with Example (KPN UFR42; ATB FOS): <=0.125 μg/mL
MIC ATB combined with Example (KPN UFR42; ATB MEM): <0.031 µg/mL
MIC ATB combined with Example (KPN UFR42; ATB PIP): <0.031 µg/mL
MIC (KPN UFR42; Klebsiella pneumoniae, substance alone, read-out: MIC): 4 µg/mL
MIC ATB combined with Example compound (KPN UFR42; MIC of CIP): >32 µg/mL
MIC ATB combined with Example compound (KPN UFR42; MIC of CPO): <=0.031 μg/mL
MIC ATB combined with Example (ECL P99; ATB ATM): <0.031 µg/mL
MIC ATB combined with Example (ECL P99; ATB FEP): <0.031 µg/mL
MIC ATB combined with Example (ECL P99; ATB FOS): <=0.125 μg/mL
MIC ATB combined with Example (ECL P99; ATB MEM): <0.031 µg/mL
MIC ATB combined with Example (ECL P99; ATB PIP): <0.031 µg/mL
MIC (ECL P99; Enterobacter cloacae, substance alone, read-out: MIC): 2 µg/mL
MIC ATB combined with Example compound (ECL P99; MIC of CIP, compound @4 μg/ml): <=0.031 μg/mL
MIC ATB combined with Example (PAE 105250; ATB ATM): 8 µg/mL
MIC ATB combined with Example (PAE 105250; ATB FEP): 8 µg/mL
MIC ATB combined with Example (PAE 105250; ATB FOS): >128 µg/mL
MIC ATB combined with Example (PAE 105250; ATB MEM): 2 µg/mL
MIC ATB combined with Example (PAE 105250; ATB PIP): 32 µg/mL
MIC ATB combined with Example compound (PAE 105250; MIC of CIP): 0.125 µg/mL
MIC ATB combined with Example compound (PAE 105250; MIC of CPO): 16 µg/mL
MIC (PAE 105250; [2]): > 32 µg/mL
MIC ATB combined with Example (PAE UFR48; ATB ATM): 8 µg/mL
MIC ATB combined with Example (PAE UFR48; ATB FEP): 32 µg/mL
MIC ATB combined with Example (PAE UFR48; ATB FOS): 32 µg/mL
MIC ATB combined with Example (PAE UFR48; ATB MEM): 0.5 µg/mL
MIC ATB combined with Example (PAE UFR48; ATB PIP): 32 µg/mL
MIC ATB combined with Example compound (PAE UFR48; MIC of CIP): 4 µg/mL
MIC ATB combined with Example compound (PAE UFR48; MIC of CPO): >32 µg/mL
MIC (PAE UFR48; [2]): > 32 µg/mL
MIC ATB combined with Example (PAE UFR90; ATB ATM): 4 µg/mL
MIC ATB combined with Example (PAE UFR90; ATB FEP): 2 µg/mL
MIC ATB combined with Example (PAE UFR90; ATB FOS): 8 µg/mL
MIC ATB combined with Example (PAE UFR90; ATB MEM): 1 µg/mL
MIC ATB combined with Example (PAE UFR90; ATB PIP): 16 µg/mL
MIC ATB combined with Example compound (PAE UFR90; MIC of CIP): 1 µg/mL
MIC ATB combined with Example compound (PAE UFR90; MIC of CPO): 4 µg/mL
MIC (PAE UFR90; [2]): > 32 µg/mL
MIC ATB combined with Example (SAU 29213; ATB ATM): >32 µg/mL
MIC ATB combined with Example (SAU 29213; ATB FEP): 0.5 µg/mL
MIC ATB combined with Example (SAU 29213; ATB FOS): 0.25 µg/mL
MIC ATB combined with Example (SAU 29213; ATB MEM): <=0.031 μg/mL
MIC ATB combined with Example (SAU 29213; ATB PIP): 0.5 µg/mL
MIC ATB combined with Example compound (SAU 29213; MIC of CIP): <=0.031 μg/mL
MIC ATB combined with Example compound (SAU 29213; MIC of CLI): <0.0010 µg/mL
MIC ATB combined with Example compound (SAU 29213; MIC of CPO): 0.063 µg/mL
MIC ATB combined with Example compound (SAU 29213; MIC of DAP): <=0.0020 μg/mL
MIC ATB combined with Example compound (SAU 29213; MIC of ERY): <0.0020 µg/mL
MIC ATB combined with Example compound (SAU 29213; MIC of LZD): 0.016 µg/mL
MIC ATB combined with Example compound (SAU 29213; MIC of RIF): 0.0039 µg/mL
MIC ATB combined with Example compound (SAU 29213; MIC of SYN): 0.063 µg/mL
MIC ATB combined with Example compound (SAU 29213; MIC of VAN): 0.5 µg/mL
MIC (SAU 29213; Staphylococcus aureus, substance alone, SAU 29213 (MSSA 29213), read-out: MIC): 4 µg/mL
MIC ATB combined with Example (SPN 49619; ATB ATM): >32 µg/mL
MIC ATB combined with Example (SPN 49619; ATB FEP): 0.063 µg/mL
MIC ATB combined with Example (SPN 49619; ATB FOS): 16 µg/mL
MIC ATB combined with Example (SPN 49619; ATB MEM): <=0.031 μg/mL
MIC ATB combined with Example (SPN 49619; ATB PIP): 0.5 µg/mL
MIC ATB combined with Example compound (SPN 49619; MIC of CIP): 0.25 µg/mL
MIC ATB combined with Example compound (SPN 49619; MIC of CLI): 0.031 µg/mL
MIC ATB combined with Example compound (SPN 49619; MIC of CPO): <=0.031 μg/mL
MIC ATB combined with Example compound (SPN 49619; MIC of DAP): 0.125 µg/mL
MIC ATB combined with Example compound (SPN 49619; MIC of ERY): 0.063 µg/mL
MIC ATB combined with Example compound (SPN 49619; MIC of LZD): 0.25 µg/mL
MIC ATB combined with Example compound (SPN 49619; MIC of RIF): 0.0078 µg/mL
MIC ATB combined with Example compound (SPN 49619; MIC of SYN): 0.5 µg/mL
MIC ATB combined with Example compound (SPN 49619; MIC of VAN): 0.125 µg/mL
MIC (SPN 49619; Streptococcus pneumoniae, substance alone, read-out: MIC): 8 µg/mL
MIC (ABA 19606): > 32 µg/mL
MIC (ABA UFR160): > 32 µg/mL
Structure (SMILES): O=C1N2CC(n3cccn3)=C[C@H](C2)N1OS(=O)(=O)[O-].[Na+] [Example 15, sodium [(5R)-7-oxo-3-pyrazol-1-yl-1,6-diazabicyclo[3.2.1]oct-3-en-6-yl] sulfate]
